The values that follow are results of earlier work, collected in patent US20160199302A1, “Pharmaceutical Composition Comprising Temozolomide With Improved Stability and Process for Manufacturing the Same” (Samyang Biopharmaceuticals Corporation, priority 2012, published 2016).

For this series the following is noted: background.

As to `Cn1nnc2c(C(N)=O)ncn2c1=O` [temozolomide, 3,4-dihydro-3-methyl-4-oxoimidazo[5,1-d]-as-tetrazine-8-carboxamide], the Solubility in water entry is “water-insoluble”.
